Experimental findings from article PMC3506555, “[^11C]phenytoin revisited: synthesis by [^11C]CO carbonylation and first evaluation as a P-gp tracer in rats” (EJNMMI Research, 2012) are described below.

The data set concerns multi-resistant protein (MRP) efflux proteins. Briefly: PET Logan graphical analysis of brain VT after probenecid. Format: in vivo, Sprague–Dawley rats. To be noted: for Kp: Sprague-Dawley, rat, iv, with probenecid 150 mg/kg i.v., after probenecid 150 mg·kg^−1 i.v., n = 2, metabolite-corrected. The source says:
Following cannulation of the femoral vein, animals were positioned in pairs in a double LSO/LYSO layer high-resolution research tomograph (CTI/Siemens, Knoxville, TN, USA). First, for attenuation and scatter correction purposes, a transmission scan was acquired using a 740-MBq two-dimensional fan-collimated ^137Cs (662 keV) moving point source. Next, a dynamic emission scan was acquired immediately following administration of 17.1 ± 2.1 MBq (mean ± SD) ^11C]phenytoin to each rat. Two animals had one single ^11C]phenytoin scan; two animals had two consecutive scans, and two had three consecutive scans. Finally, all animals underwent an ^18F]FDG scan before being euthanized. Tariquidar, 15 mg·kg^−1, was used to completely block P-gp, while probenecid, 150 mg·kg^−1, was used to inhibit multi-resistant protein (MRP) efflux proteins. Tariquidar and probenecid were administered i.v. 20 min prior to the scan start as a 10-min infusion. All animals, except one, were scanned without any treatment prior to the first ^11C]phenytoin scan. Of the animals that had two scans, one underwent two post-tariquidar scans (animal 4, Table 1). […] Animals that underwent three consecutive scans had one baseline, one post probenecid and one post-tariquidar scan. During each scan, emission data were acquired for 60 min in list mode and rebinned into the following frame sequence: 7 × 10, 1 × 20, 3 × 30, 2 × 60, 2 × 150, 2 × 300 and 4 × 600 s. Following corrections for decay, dead time, attenuation, random and scatter, scans were reconstructed using a 3D ordinary Poisson ordered subsets expectation maximization algorithm. […] PET image data were analyzed using the freely available software package Amide 0.9 [31]. A magnetic resonance (MR)-based rat brain atlas was used to define five regions of interest (ROIs): the hippocampus, occipital cortex, parietal cortex, caudate putamen and cerebellum. The MR atlas including all ROIs was aligned visually with the summed ^18F]FDG image for each rat. ROIs were then projected onto all frames of all ^11C]phenytoin scans, resulting in ^11C]phenytoin time-activity curves for each scan and rat.
During each [^11C]phenytoin scan, arterial blood samples of 0.1 mL were taken at 20 and 40 s and at 1, 2, 5, 15, 30 and 60 min after [^11C]phenytoin injection. For animals that underwent three scans, the amount of blood withdrawn was reduced by replacing the two samples at 15 and 30 min with a single 20-min sample. Plasma was obtained by centrifugation at 4,000 rpm for 5 min at 4°C, and activity in both plasma and whole blood was measured in an automated 1282 Compugamma CS Universal Gamma Counter (LKB Wallac, Turku, Finland), cross-calibrated against the PET scanner. Standardized uptake values (SUVs) as a function of time were derived by normalizing measured radioactivity concentrations against injected dose and body weight.
To obtain a model independent estimate of the brain-to-plasma partition coefficient, often referred to as volume of distribution, Logan graphical analysis was used. Before Logan analysis, both brain and plasma concentrations were corrected for labeled metabolites. As metabolite fractions were not measured at each plasma or mid-frame time point, linear regression was used to estimate the fraction of intact ^11C]phenytoin at each time point.

Read-outs that look alike come from different tables or passages of the source.

Consider `O=C1N[11C](=O)NC1(c1ccccc1)c1ccccc1` [[^11C]phenytoin], for which the Kp (caudate putamen (relative to plasma), read-out: VT (Logan), caudate putamen) amounted to 0.57 ± 0.01; the Kp (cerebellum (relative to plasma), read-out: VT (Logan), cerebellum) amounted to 0.61 ± 0.01; the Kp (hippocampus (relative to plasma), read-out: VT (Logan), hippocampus) was determined as 0.59; the Kp (occipital cortex (relative to plasma), read-out: VT (Logan), occipital cortex) is 0.59; the Kp (parietal cortex (relative to plasma), read-out: VT (Logan), parietal cortex) amounted to 0.57 ± 0.03. Also, the “Change in VT after probenecid (interaction with MRP)” value (probenecid 150 mg·kg^−1, n = 2, animals in poor condition) is on record as “no indication of an increase in VT”.
